How the values were obtained:
lambsquarters = assay: Test C pre-/postemergence herbicide test; format: in vivo, Chenopodium album
In short: (§1)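 Seeds were planted and sprayed preemergence with test chemicals in a non-phytotoxic solvent mixture containing surfactant; postemergence treatments went onto plants 2 to 18 cm tall (1- to 4-leaf stage). After 12 to 14 days in a greenhouse, injury was rated visually against untreated controls on a 0–100 scale.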

pigweed = assay: Test C pre-/postemergence herbicide test; format: in vivo, Amaranthus retroflexus
In short: as §1

eastern black nightshade = assay: Test C pre-/postemergence herbicide test; format: in vivo, Solanum ptycanthum; conditions: preemergence
In short: as §1

[1] = system: common (oilseed) sunflower; assay: Test C pre-/postemergence herbicide test; format: in vivo, Helianthus annuus; conditions: preemergence; for Plant response rating (0 = no effect, 100 = complete control), Sunflower: 125 g ai/ha
In short: as §1

cocklebur = assay: Test C pre-/postemergence herbicide test; format: in vivo, Xanthium strumarium
In short: as §1

corn = assay: Test C pre-/postemergence herbicide test; format: in vivo, Zea mays
In short: as §1

ducksalad = assay: Test C flooded paddy test; format: in vivo, Heteranthera limosa
barnyardgrass = assay: Test C flooded paddy test; format: in vivo, Echinochloa crus-galli
In short: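 Postemergence sprays applied to plants 2 to 18 cm tall (1- to 4-leaf stage); paddy species grown to 2-leaf stage under flooding. After 12 to 14 days in greenhouse, visual rating versus untreated controls on 0–100 scale (0 no effect, 100 complete control).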

[2] = system: smallflower umbrella sedge; assay: Test C flooded paddy test; format: in vivo, Cyperus difformis
large crabgrass = assay: Test C pre-/postemergence herbicide test; format: in vivo, Digitaria sanguinalis
In short: as §1

velvetleaf = assay: Test C pre-/postemergence herbicide test; format: in vivo, Abutilon theophrasti
In short: as §1

common ragweed = assay: Test C pre-/postemergence herbicide test; format: in vivo, Ambrosia elatior; design: key to Plant response rating, Ragweed: 0 = no effect, 100 = complete control
In short: as §1

[3] = 62 g ai/ha, preemergence, scale 0 to 100
[4] = 125 g ai/ha, scale 0 (no effect) to 100 (complete control), visual, 12 to 14 days, preemergence
[5] = 250 g ai/ha, scale 0-100, preemergence
[6] = 500 g ai/ha, scale 0 to 100 (0 no effect, 100 complete control), visual, 12 to 14 days, preemergence
[7] = 500 g ai/ha, scale 0 to 100 (0 no effect, 100 complete control), visual, 12 to 14 days
[8] = 125 g ai/ha, scale 0 to 100 (0 no effect, 100 complete control)
[9] = 250 g ai/ha, scale of 0 to 100, 0 is no effect, 100 is complete control
[10] = 500 g ai/ha, visual rating after 12 to 14 days, scale 0 to 100 (0 no effect, 100 complete control)
[11] = postemergence, 125 g ai/ha, scale 0 to 100
[12] = postemergence, 62 g ai/ha, scale 0 to 100
[13] = Postemergence, 250 g ai/ha, scale 0 to 100, 0 no effect, 100 complete control

CCN(C)C(=O)c1ccc(F)c(NC(=O)C2CC(C(C)(C)C)=NN2CC)c1 (racemic) [Compound 307]
Plant response rating, Lambsquarters (lambsquarters; [3]): 100 | Plant response rating, Lambsquarters (lambsquarters; [4]): 100 | Plant response rating, Lambsquarters (lambsquarters; [5]): 100 | Plant response rating, Lambsquarters (lambsquarters; [6]): 100 | Plant response rating, Pigweed (pigweed; [3]): 100 | Plant response rating, Pigweed (pigweed; [4]): 100 | Plant response rating, Pigweed (pigweed; [5]): 100 | Plant response rating, Pigweed (pigweed; [6]): 100 | Plant response rating, Nightshade (eastern black nightshade; 62 g ai/ha, scale 0 to 100): 100 | Plant response rating, Nightshade (eastern black nightshade; 125 g ai/ha, scale 0 (no effect) to 100 (complete control), visual, 12 to 14 days): 100 | Plant response rating, Nightshade (eastern black nightshade; 250 g ai/ha, scale 0-100): 100 | Plant response rating, Nightshade (eastern black nightshade; [7]): 100 | Plant response rating, Sunflower ([1]; 62 g ai/ha, scale 0 to 100): 0 | Plant response rating, Sunflower ([1]; 250 g ai/ha, scale 0-100): 60 | Plant response rating, Sunflower [1, 7]: 60 | Plant response rating, Cocklebur (cocklebur; [3]): 0 | Plant response rating, Cocklebur (cocklebur; [4]): 30 | Plant response rating, Cocklebur (cocklebur; [5]): 35 | Cocklebur plant response rating (cocklebur; Preemergence, 500 g ai/ha, scale 0 to 100, 0 no effect, 100 complete control): 75 | Plant response rating, Corn (corn; [3]): 0 | Plant response rating, Corn (corn; [4]): 20 | Plant response rating, Corn (corn; [5]): 30 | Plant response rating, Corn (corn; [6]): 45 | Ducksalad plant response rating (ducksalad; 62 g ai/ha, scale 0 to 100): 60 | Ducksalad plant response rating (ducksalad; [8]): 70 | Ducksalad plant response rating (ducksalad; [9]): 90 | Plant response rating, Ducksalad (ducksalad; [10]): 90 | Barnyardgrass plant response rating (barnyardgrass; 62 g ai/ha, scale 0 to 100 (0 no effect, 100 complete control)): 30 | Barnyardgrass plant response rating (barnyardgrass; [8]): 65 | Barnyardgrass plant response rating (barnyardgrass; [9]): 80 | Plant response rating, Barnyardgrass (barnyardgrass; [10]): 95 | Sedge, Umbrella plant response rating ([2]; 62 g ai/ha, scale 0 to 100): 40 | Sedge, Umbrella plant response rating [2, 8]: 70 | Sedge, Umbrella plant response rating [2, 9]: 80 | Plant response rating, Sedge, Umbrella [2, 10]: 85 | Plant response rating, Crabgrass, Large (large crabgrass; [3]): 80 | Plant response rating, Crabgrass, Large (large crabgrass; [4]): 100 | Plant response rating, Crabgrass, Large (large crabgrass; [5]): 100 | Plant response rating, Crabgrass, Large (large crabgrass; [6]): 100 | Plant response rating, Velvetleaf (velvetleaf; [3]): 70 | Plant response rating, Velvetleaf (velvetleaf; [5]): 100 | Plant response rating, Velvetleaf (velvetleaf; [6]): 100 | Plant response rating, Ragweed (common ragweed; [3]): 80 | Plant response rating, Ragweed (common ragweed; [5]): 100 | Plant response rating, Ragweed (common ragweed; [6]): 100

CCOC(=O)c1cccc(NC(=O)c2nn(C(C)(C)CC)nc2CC)c1 [Compound 375]
Plant response rating, Lambsquarters (lambsquarters; [3]): 5 | Plant response rating (0 = no effect, 100 = complete control), Lambsquarters (lambsquarters; 125 g ai/ha, preemergence): 10 | Plant response rating, Lambsquarters (lambsquarters; [5]): 90 | Plant response rating, Lambsquarters (lambsquarters; [11]): 40 | Plant response rating, Lambsquarters (lambsquarters; [12]): 10 | Plant response rating, Pigweed (pigweed; [3]): 50 | Plant response rating (0 = no effect, 100 = complete control), Pigweed (pigweed; 125 g ai/ha, preemergence): 50 | Plant response rating, Pigweed (pigweed; [5]): 100 | Plant response rating, Pigweed (pigweed; [12]): 80 | Plant response rating, Nightshade (eastern black nightshade; 62 g ai/ha, scale 0 to 100): 50 | Plant response rating (0 = no effect, 100 = complete control), Nightshade (eastern black nightshade; 125 g ai/ha): 50 | Plant response rating, Nightshade (eastern black nightshade; 250 g ai/ha, scale 0-100): 55 | Plant response rating, Sunflower ([1]; 62 g ai/ha, scale 0 to 100): 0 | Plant response rating (0 = no effect, 100 = complete control), Sunflower [1]: 0 | Plant response rating, Sunflower ([1]; 250 g ai/ha, scale 0-100): 0 | Plant response rating, Cocklebur (cocklebur; [3]): 0 | Plant response rating (0 = no effect, 100 = complete control), Cocklebur (cocklebur; 125 g ai/ha, preemergence): 0 | Plant response rating, Cocklebur (cocklebur; [5]): 0 | Plant response rating, Cocklebur (cocklebur; [13]): 15 | Plant response rating, Cocklebur (cocklebur; [11]): 10 | Plant response rating, Cocklebur (cocklebur; postemergence, 31 g ai/ha, scale 0 to 100): 0 | Plant response rating, Cocklebur (cocklebur; [12]): 10 | Plant response rating, Corn (corn; [3]): 0 | Plant response rating (0 = no effect, 100 = complete control), Corn (corn; 125 g ai/ha, preemergence): 5 | Plant response rating, Corn (corn; [5]): 5 | Plant response rating, Corn (corn; [13]): 20 | Plant response rating, Corn (corn; [11]): 15 | Plant response rating, Corn (corn; [12]): 10 | Plant response rating, Crabgrass, Large (large crabgrass; [3]): 60 | Plant response rating (0 = no effect, 100 = complete control), Crabgrass, Large (large crabgrass; 125 g ai/ha, preemergence): 70 | Plant response rating, Crabgrass, Large (large crabgrass; [5]): 100 | Plant response rating, Crabgrass, Large (large crabgrass; [13]): 20 | Plant response rating, Crabgrass, Large (large crabgrass; [11]): 20 | Plant response rating, Crabgrass, Large (large crabgrass; [12]): 5 | Plant response rating, Velvetleaf (velvetleaf; [3]): 0 | Plant response rating (0 = no effect, 100 = complete control), Velvetleaf (velvetleaf; 125 g ai/ha, preemergence): 30 | Plant response rating, Velvetleaf (velvetleaf; [5]): 80 | Plant response rating, Velvetleaf (velvetleaf; [11]): 85 | Plant response rating, Velvetleaf (velvetleaf; [12]): 60 | Plant response rating, Ragweed (common ragweed; [3]): 0 | Plant response rating (0 = no effect, 100 = complete control), Ragweed (common ragweed; 125 g ai/ha, preemergence): 5 | Plant response rating, Ragweed (common ragweed; [5]): 10 | Plant response rating, Ragweed (common ragweed; [11]): 10 | Plant response rating, Ragweed (common ragweed; [12]): 5

C=CCNC(=O)c1cccc(NC(=O)c2nn(C(C)(C)C)nc2CC)c1 [Compound 414]
Plant response rating, Lambsquarters (lambsquarters; [3]): 95 | Plant response rating (0 = no effect, 100 = complete control), Lambsquarters (lambsquarters; 125 g ai/ha, preemergence): 95 | Plant response rating, Lambsquarters (lambsquarters; [5]): 95 | Plant response rating, Lambsquarters (lambsquarters; [6]): 100 | Plant response rating, Pigweed (pigweed; [3]): 100 | Plant response rating (0 = no effect, 100 = complete control), Pigweed (pigweed; 125 g ai/ha, preemergence): 100 | Plant response rating, Pigweed (pigweed; [6]): 100 | Plant response rating, Nightshade (eastern black nightshade; 62 g ai/ha, scale 0 to 100): 85 | Plant response rating (0 = no effect, 100 = complete control), Nightshade (eastern black nightshade; 125 g ai/ha): 90 | Plant response rating, Nightshade (eastern black nightshade; [7]): 100 | Plant response rating, Sunflower ([1]; 62 g ai/ha, scale 0 to 100): 0 | Plant response rating (0 = no effect, 100 = complete control), Sunflower [1]: 0 | Plant response rating, Sunflower [1, 7]: 0 | Plant response rating, Cocklebur (cocklebur; [3]): 0 | Plant response rating (0 = no effect, 100 = complete control), Cocklebur (cocklebur; 125 g ai/ha, preemergence): 15 | Plant response rating, Cocklebur (cocklebur; [5]): 20 | Plant response rating, Cocklebur (cocklebur; [6]): 30 | Plant response rating, Corn (corn; [3]): 0 | Plant response rating (0 = no effect, 100 = complete control), Corn (corn; 125 g ai/ha, preemergence): 0 | Plant response rating, Corn (corn; [5]): 50 | Plant response rating, Corn (corn; [6]): 80 | Plant response rating, Crabgrass, Large (large crabgrass; [3]): 100 | Plant response rating (0 = no effect, 100 = complete control), Crabgrass, Large (large crabgrass; 125 g ai/ha, preemergence): 100 | Plant response rating, Crabgrass, Large (large crabgrass; [5]): 100 | Plant response rating, Crabgrass, Large (large crabgrass; [6]): 100 | Plant response rating, Velvetleaf (velvetleaf; [3]): 90 | Plant response rating (0 = no effect, 100 = complete control), Velvetleaf (velvetleaf; 125 g ai/ha, preemergence): 100 | Plant response rating, Velvetleaf (velvetleaf; [6]): 100 | Plant response rating, Ragweed (common ragweed; [3]): 15 | Plant response rating (0 = no effect, 100 = complete control), Ragweed (common ragweed; 125 g ai/ha, preemergence): 45 | Plant response rating, Ragweed (common ragweed; [6]): 65

From US20060069132A1, “Azolecarboxamide herbicides” (priority 2004, published 2006)
